The results in this text go back to patent US10947216B2, “Amide compounds and method for making and using” (Rigel Pharmaceuticals, Inc., priority 2016, dated 2021).

One may read the EC50 as the concentration needed to bring the measured effect to its halfway point.

Test [1] has as its system IL-23p19. In words: LPS Induced IL23p19 in THP-1 Cells (with IFNγ Primed) Assay. It is filed as cell-based, human. Conditions: Homo sapiens, THP-1, THP-1 cells, IFNγ (50 ng/mL) primed, 1 hour compound pre-incubation, LPS 1 ug/mL 18 hours, 10 pt; read-out: IL23-p19 ELISA, THP1-IFNy, LPS, 10 pt EC50. The gist of the method: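 THP-1 cells (50K/well) primed ~18 h with IFNγ (50 ng/mL) in RPMI/10% FBS, then incubated with compound in duplicate for 18 h at 37° C. Supernatant IL-23p19 measured by chemiluminescent sandwich ELISA, giving EC50 by curve fitting. Toxicity assessed in parallel on the remaining cells by Cell Titer Glo.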

Test [2] concerns IL-23 (p19/p40). The test can be described thus: IL23-p19 ELISA, dendritic cells (DC differentiated from human PBMC, IFNγ primed), LPS stimulated. Type of test: cell-based. The following applies: Dendritic cell, human PBMC-derived dendritic cells, 1 h compound pre-incubation, LPS 1 μg/ml 18 hours, 10 pt. How it is done: Compound Screening Using DC Cells
I. Differentiation of PBMC's to DC Cells:
After 2 hours, the media including floating cells was aspirated out carefully and 12 ml of fresh RPMI media (10% FBS) containing GMCSF (100 ng/ml) and IL4 (20 ng/ml) was added, and the flask was kept in a 37° C. incubator for 7 days.
After 3 days, fresh GMCSF (100 ng/ml) and IL4 (20 ng/ml) were added to the flask and the incubation continued. After 7 days, the fully differentiated cells were harvested by spinning down (1200 rpm/5 min) and aspirating the media. The cells were suspended in fresh RPMI media (10% FBS) containing 50 ng/ml IFNγ (1000 U/ml) and then plated (50K/well in 100 μl) onto a white clear bottom 96 well plate and left in a 37° C. incubator for 24 hours.
II. Addition of Compounds:
After 24 hours incubation, 100 μl of RPMI media was added containing 2× concentrated test compound per well to the above cell-culture media (final concentration becomes 1×) and the plates were pre-incubated for 1 hour at 37° C. before stimulating with LPS.
The mixture was shaken and incubated the plates at 37° C. for an additional 18 hours.
155 μl of the supernatant was harvested from each well carefully (without the tip touching the bottom of the well) and to the remaining 50 μl/well of the cell culture plate was added 50 μl of Cell Titer Glo reagent. The mixture was incubated for 1-2 minutes on a shaker and the plate was read for luminescence intensity to determine the compound cytotoxicity. The cell culture supernatant collected above was used to carry out IL23 ELISA (65 μl—Supernatant) and IL10 ELISA (90 μl—Supernatant) as described below.
Human IL-23 (p19/p40) ELISA Protocol (e-Biosciences)
To 10.5 ml PBS add 50 μl of anti-IL23 (p19) was added capture antibody (2.5 μg/ml). The mixture was mixed well and 100 μl of the coating solution was added to each well of the 96 well white plates from Pierce. The wells were covered and incubated overnight at 4° C.
The anti-IL23 (p19)-antibody-coated plates were washed 2× using TBST (use plate washer) and blocked using 200 μl of 0.5% Casein for 1.5-2 hours at room temperature with shaking.
Addition of Supernatant and Detection:
The plates were washed 2× using TBST and the supernatant was transferred (65 μl/well) to the above pre-blocked/IL23(p19)-antibody-coated 96 well plate, and incubated at room temperature for 1.5 hours with shaking.
The plates were washed 4× using TBST (plate washer) and 100 μl/well detection antibody solution prepared from 2 μl of biotin labeled anti-IL-12 (p40/p70) antibody in 11 ml 1% BSA/PBS solution (1-5000 dilution) was added. The plates were incubated for 1 hour with shaking at Room temperature.
Again, the plates were washed 4× with TBST and 100 μl of HRP labeled Streptavidin (R&D Systems) solution (10 μl/10 ml 1% BSA solution) was added, and the plates were incubated at room temperature for another 45 minutes with shaking.
After 45 minutes, the plates were washed with TBST 4× and 100 μl/well Super Signal ELISA Pico Chemiluminescent Substrate from Pierce (3.5 ml A+3.5 ml B+3.5 ml MQ water) was added. The plates were shaken for 1-2 minutes then read on a plate reader.

`CNc1cncc(-c2cccc(C(=O)Nc3cn(C)nc3-c3ccccn3)n2)c1` [Compound I-26, N-(1-methyl-3-(pyridin-2-yl)-1H-pyrazol-4-yl)-5′-(methylamino)-[2,3′-bipyridine]-6-carboxamide]: the EC50 came out at 2.87 µM in test [1] and 0.204 µM in test [2].
On the same counts, the results for `Cn1cc(NC(=O)c2cccc(-c3cncc(NC4CC4)c3)n2)c(-c2ccccn2)n1` [Compound I-27, 5′-(cyclopropylamino)-N-(1-methyl-3-(pyridin-2-yl)-1H-pyrazol-4-yl)-[2,3′-bipyridine]-6-carboxamide] are 7.02 µM and 0.342 µM.
On the same counts, the results for `CC(C)Nc1cncc(-c2cccc(C(=O)Nc3cn(C)nc3-c3ccccn3)n2)c1` [Compound I-28, 5′-(isopropylamino)-N-(1-methyl-3-(pyridin-2-yl)-1H-pyrazol-4-yl)-[2,3′-bipyridine]-6-carboxamide] are 1.45 µM and 0.546 µM.
On the same counts, the results for `Cn1cc(NC(=O)c2cccc(-c3cncc(NC(C)(C)C)c3)n2)c(-c2ccccn2)n1` [Compound I-29, 5′-(tert-butylamino)-N-(1-methyl-3-(pyridin-2-yl)-1H-pyrazol-4-yl)-[2,3′-bipyridine]-6-carboxamide] are 16.4 µM and 0.91 µM.
Consider `Cn1cc(NC(=O)c2cccc(-c3cncc(NC4CCOCC4)c3)n2)c(-c2ccccn2)n1` [Compound I-30, N-(1-methyl-3-(pyridin-2-yl)-1H-pyrazol-4-yl)-5′-((tetrahydro-2H-pyran-4-yl)amino)-[2,3′-bipyridine]-6-carboxamide], for which the figures for the EC50 in test [1] and in test [2] were 0.772 µM and 3.21 µM, respectively.
On the same counts, the results for `Cn1cc(NC(=O)c2cccc(-c3cncc(NCC4CC4)c3)n2)c(-c2ccccn2)n1` [Compound I-32, 5′-((cyclopropylmethyl)amino)-N-(1-methyl-3-(pyridin-2-yl)-1H-pyrazol-4-yl)-[2,3′-bipyridine]-6-carboxamide] are 2.52 µM and 7.19 µM.
The corresponding values for `Cn1cc(NC(=O)c2cccc(-c3cncc(NCC(F)(F)F)c3)n2)c(-c2ccccn2)n1` [Compound I-33, N-(1-methyl-3-(pyridin-2-yl)-1H-pyrazol-4-yl)-5′-((2,2,2-trifluoroethyl)amino)-[2,3′-bipyridine]-6-carboxamide] are 3.16 µM and 1.02 µM.
On the same counts, the results for `Cn1cc(NC(=O)c2cccc(-c3cncc(NS(C)(=O)=O)c3)n2)c(-c2ccccn2)n1` [Compound I-34, N-(1-methyl-3-(pyridin-2-yl)-1H-pyrazol-4-yl)-5′-(methylsulfonamido)-[2,3′-bipyridine]-6-carboxamide] are 71.9 µM and 16.1 µM.
Regarding `CN(C)c1cncc(-c2cccc(C(=O)Nc3cn(C)nc3-c3ccccn3)n2)c1` [Compound I-35, 5′-(dimethylamino)-N-(1-methyl-3-(pyridin-2-yl)-1H-pyrazol-4-yl)-[2,3′-bipyridine]-6-carboxamide], the concentration for a half-maximal effect (EC50) in test [1] is 1.11 µM; in test [2], 0.878 µM.
The corresponding values for `Cn1cc(NC(=O)c2cccc(-c3cncc(N4CCCC4)c3)n2)c(-c2ccccn2)n1` [Compound I-36, N-(1-methyl-3-(pyridin-2-yl)-1H-pyrazol-4-yl)-5′-(pyrrolidin-1-yl)-[2,3′-bipyridine]-6-carboxamide] are 4.25 µM and 0.784 µM.
Consider `CN1CCN(c2cncc(-c3cccc(C(=O)Nc4cn(C)nc4-c4ccccn4)n3)c2)CC1` [Compound I-38, N-(1-methyl-3-(pyridin-2-yl)-1H-pyrazol-4-yl)-5′-(4-methylpiperazin-1-yl)-[2,3′-bipyridine]-6-carboxamide], for which the results for the EC50 in test [1] and in test [2] were 6.2 µM and 33.7 µM, respectively.
On the same counts, the results for `Cn1cc(NC(=O)c2cccc(-c3ccc(N)nc3)n2)c(-c2ccccn2)n1` [Compound I-43, 6′-amino-N-(1-methyl-3-(pyridin-2-yl)-1H-pyrazol-4-yl)-[2,3′-bipyridine]-6-carboxamide] are 1.32 µM and 1.46 µM.
On the same counts, the results for `Cn1cc(NC(=O)c2cccc(-c3cnc4[nH]ccc4c3)n2)c(-c2ccccn2)n1` [Compound I-44, N-(1-methyl-3-(pyridin-2-yl)-1H-pyrazol-4-yl)-6-(1H-pyrrolo[2,3-b]pyridin-5-yl)picolinamide] are 0.349 µM and 1.77 µM.
On the same counts, the results for `COc1ccc(-c2cccc(C(=O)Nc3cn(C)nc3-c3ccccn3)n2)cc1` [Compound I-52, 6-(4-methoxyphenyl)-N-(1-methyl-3-(pyridin-2-yl)-1H-pyrazol-4-yl)picolinamide] are 4.48 µM and 1.11 µM.
For the molecule `CN(C)c1cccc(-c2cccc(C(=O)Nc3cn(C)nc3-c3ccccn3)n2)c1` [Compound I-59, 6-(3-(dimethylamino)phenyl)-N-(1-methyl-3-(pyridin-2-yl)-1H-pyrazol-4-yl)picolinamide], the EC50 was determined as 23.9 µM in test [1] and 2.47 µM in test [2].
The corresponding values for `Cn1cc(NC(=O)c2cccc(C3=CCCNC3)n2)c(-c2ccccn2)n1` [Compound I-65, N-(1-methyl-3-(pyridin-2-yl)-1H-pyrazol-4-yl)-1′,2′,5′,6′-tetrahydro-[2,3′-bipyridine]-6-carboxamide] are 77.2 µM and 7.88 µM.
On the same counts, the results for `COc1ccc(-c2nn(C)cc2NC(=O)c2cccc(-c3ccn[nH]3)n2)nc1` [Compound I-67, N-(3-(5-methoxypyridin-2-yl)-1-methyl-1H-pyrazol-4-yl)-6-(1H-pyrazol-5-yl)picolinamide] are 0.483 µM and 2.68 µM.
The corresponding values for `COc1ccc(-c2nn(C)cc2NC(=O)c2cccc(-c3cn[nH]c3)n2)nc1` [Compound I-68, N-(3-(5-methoxypyridin-2-yl)-1-methyl-1H-pyrazol-4-yl)-6-(1H-pyrazol-4-yl)picolinamide] are 0.29 µM and 2.41 µM.
`COc1ccc(-c2nn(C)cc2NC(=O)c2cccc(-c3cncc(C)c3)n2)nc1` [Compound I-69, N-(3-(5-methoxypyridin-2-yl)-1-methyl-1H-pyrazol-4-yl)-5′-methyl-[2,3′-bipyridine]-6-carboxamide]: the values for the EC50 in test [1] and in test [2] were 1.2 µM and 1.51 µM, respectively.
On the same counts, the results for `COc1ccc(-c2nn(C)cc2NC(=O)c2cccc(-c3cncc(NC(C)C)c3)n2)nc1` [Compound I-71, 5′-(isopropylamino)-N-(3-(5-methoxypyridin-2-yl)-1-methyl-1H-pyrazol-4-yl)-[2,3′-bipyridine]-6-carboxamide] are 0.299 µM and 0.415 µM.
On the same counts, the results for `Cn1cc(NC(=O)c2cccc(-c3cn[nH]c3)n2)c(N2CCCC2)n1` [Compound I-72, N-(1-methyl-3-(pyrrolidin-1-yl)-1H-pyrazol-4-yl)-6-(1H-pyrazol-4-yl)picolinamide] are 7.58 µM and 3.17 µM.
On the same counts, the results for `Cn1cc(NC(=O)c2cccc(-c3cn[nH]c3)n2)c(N2CCCCC2)n1` [Compound I-73, N-(1-methyl-3-(piperidin-1-yl)-1H-pyrazol-4-yl)-6-(1H-pyrazol-4-yl)picolinamide] are 1.77 µM and 2.16 µM.
As for `Cn1cc(NC(=O)c2cccc(-c3cn[nH]c3)n2)c(N2CCOCC2)n1` [Compound I-74, N-(1-methyl-3-morpholino-1H-pyrazol-4-yl)-6-(1H-pyrazol-4-yl)picolinamide], the EC50 is 18.8 µM in test [1] and 3.81 µM in test [2].
